Assay [1] deals with T1, soybean 7S globulin (7S; β-conglycinin) (Glycine max, UniProt P0DO16+P11827+P25974).
T1 construct: gene CG-1; mature trimers of α, α’ and β, 150-180 kDa
T1 sequence (P11827 63-621): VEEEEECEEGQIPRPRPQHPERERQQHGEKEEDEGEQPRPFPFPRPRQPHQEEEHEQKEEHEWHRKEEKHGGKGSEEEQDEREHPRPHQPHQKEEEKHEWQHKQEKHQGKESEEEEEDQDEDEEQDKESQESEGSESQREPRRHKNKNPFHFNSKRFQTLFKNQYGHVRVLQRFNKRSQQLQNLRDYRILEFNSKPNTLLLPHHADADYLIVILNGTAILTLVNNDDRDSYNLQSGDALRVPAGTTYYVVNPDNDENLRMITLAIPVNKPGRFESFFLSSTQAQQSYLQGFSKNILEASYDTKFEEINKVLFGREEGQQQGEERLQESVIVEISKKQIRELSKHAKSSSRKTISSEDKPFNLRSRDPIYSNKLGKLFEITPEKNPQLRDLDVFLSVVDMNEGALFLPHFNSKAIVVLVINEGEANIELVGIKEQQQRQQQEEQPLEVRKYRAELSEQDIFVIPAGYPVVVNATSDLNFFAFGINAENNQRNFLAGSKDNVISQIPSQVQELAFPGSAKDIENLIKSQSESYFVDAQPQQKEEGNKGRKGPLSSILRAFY
T1 sequence (P0DO16 63-605): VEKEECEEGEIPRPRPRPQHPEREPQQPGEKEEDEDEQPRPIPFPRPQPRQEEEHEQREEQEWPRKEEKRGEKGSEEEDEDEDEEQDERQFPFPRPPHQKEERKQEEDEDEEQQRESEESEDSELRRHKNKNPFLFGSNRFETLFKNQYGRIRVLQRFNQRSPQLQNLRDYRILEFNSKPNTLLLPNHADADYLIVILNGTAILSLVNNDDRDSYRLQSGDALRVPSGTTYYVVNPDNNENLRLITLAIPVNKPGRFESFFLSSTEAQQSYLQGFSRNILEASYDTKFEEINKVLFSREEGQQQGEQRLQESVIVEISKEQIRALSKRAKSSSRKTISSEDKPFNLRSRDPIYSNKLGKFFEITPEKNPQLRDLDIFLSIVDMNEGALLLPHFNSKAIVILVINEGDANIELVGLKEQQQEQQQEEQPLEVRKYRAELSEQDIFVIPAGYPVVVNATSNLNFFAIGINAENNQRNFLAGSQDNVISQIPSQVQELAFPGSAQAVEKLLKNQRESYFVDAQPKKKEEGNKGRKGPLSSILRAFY
T1 sequence (P25974 24-439): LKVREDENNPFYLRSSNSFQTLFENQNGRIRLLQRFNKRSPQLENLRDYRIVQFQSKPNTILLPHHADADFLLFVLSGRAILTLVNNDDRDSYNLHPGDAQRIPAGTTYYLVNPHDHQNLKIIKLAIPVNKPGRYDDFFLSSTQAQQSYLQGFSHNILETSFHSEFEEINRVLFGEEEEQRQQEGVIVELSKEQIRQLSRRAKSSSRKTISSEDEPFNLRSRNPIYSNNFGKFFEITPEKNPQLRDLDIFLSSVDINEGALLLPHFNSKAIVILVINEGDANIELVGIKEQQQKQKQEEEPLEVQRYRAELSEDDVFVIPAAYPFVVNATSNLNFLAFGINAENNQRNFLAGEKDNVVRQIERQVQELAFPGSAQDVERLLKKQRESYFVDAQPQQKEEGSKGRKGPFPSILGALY
The assay is described as follows: isothermal titration calorimetry, one-site model. The class given is binding. Particulars: 10 mM phosphate pH 7.0, 25 °C, 5 mM ligand. An excerpt: isothermal titration calorimetry, one-site model on soybean 7S globulin (7S; β-conglycinin)
For orientation: Isothermal titration calorimetry measures the heat released or taken up as one component is titrated into another.

Assay [2] addresses T1, soybean 7S globulin (7S; β-conglycinin). The assay is described as follows: intrinsic fluorescence quenching, double-logarithmic fit. Conditions: 10 mM phosphate pH 7.0, 298 K, 10 μM 7S, 0-12 μM ligand. The class given is binding. An excerpt: intrinsic fluorescence quenching, double-logarithmic fit on soybean 7S globulin (7S; β-conglycinin)

Marks after values point to notes of the source that are not given here.

`O=C(/C=C/c1ccc(O)c(O)c1)O[C@@H]1C[C@](O)(C(=O)O)C[C@@H](O)[C@H]1O` [CA, chlorogenic acid]: the Kd (commonly the equilibrium constant for the complex coming apart) in assay [1] (10 μM 7S, N = 7.23 sites) is 444 µM. Moreover, in assay [2] (n = 1.42), the “Ka (10^4 L/mol)” value is on record as 7.44 ± 0.32 (10^4).
For the compound `O=C(O[C@@H]1Cc2c(O)cc(O)cc2O[C@@H]1c1cc(O)c(O)c(O)c1)c1cc(O)c(O)c(O)c1` [EGCG, (−)-epigallocatechin gallate], in assay [1] (5 μM 7S, N = 1.68 sites), the Kd came out at 485 µM. Besides, the “Ka (10^4 L/mol)” value in assay [2] (n = 1.25) was 6.23 ± 0.30 (10^4).
Turning to `O=C(O)c1cc(O)c(O)c(O)c1` [GA, gallic acid], the Kd in assay [1] (10 μM 7S, N = 10.0 sites) came out at 720 µM. In assay [2] (n = 1.12), the “Ka (10^4 L/mol)” value is 5.10 ± 0.30 (10^4).

(Values after publication PMC10649178, “Exploring the Interactions of Soybean 7S Globulin with Gallic Acid, Chlorogenic Acid and (−)-Epigallocatechin Gallate” (Foods, 2023).)
